Measurements as given in patent publication US6875844B1, “Peptide compounds derived from a shifted ORF of the iCE gene” (Institut Gustave Roussy, priority 1999, dated 2005).
pEC50: −log10 of the molar value.

What was measured:
[1] = system: autologous EBV-transformed B cells; test: Target sensitization assay: 51Cr release lysis by CTL clone 3B8 of peptide-incubated autologous EBV-transformed B cells; type: cell-based, human; details: EBV-transformed B cells incubated with peptide, CTL clone 3B8 effector 30:1, chromium release after 4 h; read-out: Peptide concentration giving semi-maximal lysis
Experimental: 2000 EBV-transformed cells were incubated and labeled with 51Cr for 1 h in the presence of the HLA-B7-restricted iCE peptide (SPRWWPTCL; SEQ ID NO:2) or another control HLA-B7-restricted peptide (VISTVVANL; SEQ ID NO:9). Clone 3B8 was then added as an effector, in a ratio set at 30:1. Chromium release was measured after 4 h.
The cytolytic activity of the CTLs was determined in a standard ^51Cr release assay as previously described (22). Target cells (RCC and K562 cell lines) were labeled for 1 h with 50 μCi to 100 μCi of ^51Cr (Du Pont, NEN, Boston, Mass.) at 37° C., and 2×10^3 cells were seeded in 96-microwell plates in 100 μl of RPMI supplemented with 5% of FCS. […] The 96-microwell plates were incubated at 37° C. for 4 h, and ^51Cr release was determined in the harvested supernatants. […]
In order to reduce the nucleotide sequence encoding the antigen, several truncated cDNAs were obtained by PCR amplification. […] After examining the corresponding amino acid sequence, all possible nonamers and decamers were synthesized, and their ability to make autologous EBV-transformed B cells sensitive to lysis by 3B8 was evaluated.
Finally, an alternative ORF was found (a+1 translational open reading frame leading to a 453-nt ORF) with three ATGs in nt positions 476, 479 and 803, which encodes a nonamer (SPRWWPTCL) (SEQ ID NO: 2) in the minimum region of nt 763-855. […]

HLA-B*0702 = molecular target: T1, HLA-B*0702 (Homo sapiens, UniProt P01889); test: Binding and stability of peptide on T2 cells transfected with HLA-B*0702 (HLA-B7 expression by flow cytometry)
T1 construct: expressed in transfected cells; host or cells: T2 cells
Experimental: T2 cells were incubated at 26° C. for 16 hours in medium without serum containing peptides at a concentration of 50 μM. Then, the peptides were again added, and the cells were incubated at 37° C. At 30-min or 1-h intervals, aliquots of cells were harvested, and the change in HLA-B7 expression was monitored by flow cytometry using an anti-HLA-B7 mAB (HB59). By way of control, an HLA-A2-restricted HSP70 peptide was used. The peptide SPRWWPTCL is provided in SEQ ID NO: 2.
HLA-A2-binding peptide antigens upregulate the expression of HLA-A2 molecules on T2 cells (37). Similarly, T2 cells transfected with HLA-B*0702 (38) were used to analyze the binding capacity and the stability of the iCE peptide (FIG. 6). At […], the binding of the iCE peptide is stable over time for at least 4 h, unlike the control, which is the HLA-A2-restricted HSP70 peptide (14).

SPRWWPTCL [nonamer encoded by the +1 alternative ORF of the iCE gene, with HLA-B7-anchoring residues at positions 2, 3 and 9]
pEC50 [1]: > 6.00 | Stability of binding to T2 cells transfected with HLA-B*0702 (in words) (HLA-B*0702; T2 cells transfected with HLA-B*0702): stable with time | Time over which binding to HLA-B7 is stable (HLA-B*0702; T2 cells transfected with HLA-B*0702, peptide at 50 mM (so in the source), 37° C.): at least 4 h | Binding to HLA-B*0702-presenting molecules (in words) (HLA-B*0702; binding assay by immunofluorescence using transfected T2 cells): binds
